Data reported in PMC9814779, “A triple farnesoid X receptor and peroxisome proliferator-activated receptor α/δ activator reverses hepatic fibrosis in diet-induced NASH in mice” (Communications Chemistry, 2020).
Where two headings read alike, the source gives them in different places.

Assays:
Type in all cases: cell-based
Set-up in all cases: Emax: dose or concentration left out as unconfirmed
[1] = biological target: T1, human FXR:retinoid X receptor (RXR) heterodimer (Homo sapiens, UniProt Q96RI1); test: Full-length FXR reporter gene assay (BSEP response element) in HeLa cells; conditions: for EC50: mean ± SEM; for FXR max. rel. act.: Supplementary Table 1, relative to GW4064 at 3 µM; for Emax: read-out: max. rel. act. FXR
T1 construct: pcDNA3-hFXR[32] and pSG5-hRXR[33] served for receptor overexpression in the full-length FXR assay; expressed in transfected cells; host or cells: HeLa

[2] = biological target: T2, human PPARγ ligand-binding domain (Gal4 chimera) (Homo sapiens, UniProt P37231); test: Gal4 hybrid reporter gene assay, PPARγ
T2 construct: coding for the hinge region and LBD of the canonical isoform of the respective nuclear receptor; expressed in transfected cells; host or cells: HEK293T
T2 sequence (P37231 238-503 limits assumed): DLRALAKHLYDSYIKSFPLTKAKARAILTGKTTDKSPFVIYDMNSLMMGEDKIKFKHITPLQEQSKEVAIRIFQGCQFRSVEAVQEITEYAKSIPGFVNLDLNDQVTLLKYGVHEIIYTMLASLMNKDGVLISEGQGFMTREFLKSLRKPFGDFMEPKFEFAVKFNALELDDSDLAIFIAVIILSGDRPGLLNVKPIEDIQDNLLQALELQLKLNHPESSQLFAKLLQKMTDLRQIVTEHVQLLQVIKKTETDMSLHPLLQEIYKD

[3] = biological target: T3, human PPARα ligand-binding domain (Gal4 chimera) (Homo sapiens, UniProt Q07869); test: Gal4 hybrid reporter gene assay, PPARα; conditions: for EC50: mean ± SEM
T3 construct: coding for the hinge region and LBD of the canonical isoform of the respective nuclear receptor; expressed in transfected cells; host or cells: HEK293T
T3 sequence (Q07869 239-466 limits assumed): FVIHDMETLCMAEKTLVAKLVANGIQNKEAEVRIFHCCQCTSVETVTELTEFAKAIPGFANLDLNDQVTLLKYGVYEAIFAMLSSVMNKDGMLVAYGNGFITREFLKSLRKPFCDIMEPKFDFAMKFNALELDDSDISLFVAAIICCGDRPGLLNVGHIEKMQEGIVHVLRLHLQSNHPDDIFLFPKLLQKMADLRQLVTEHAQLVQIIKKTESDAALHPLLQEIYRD

[4] = biological target: T4, human PPARδ ligand-binding domain (Gal4 chimera) (Homo sapiens, UniProt Q03181); test: Gal4 hybrid reporter gene assay, PPARδ; conditions: for EC50: mean ± SEM
T4 construct: coding for the hinge region and LBD of the canonical isoform of the respective nuclear receptor; expressed in transfected cells; host or cells: HEK293T
T4 sequence (Q03181 211-439 limits assumed): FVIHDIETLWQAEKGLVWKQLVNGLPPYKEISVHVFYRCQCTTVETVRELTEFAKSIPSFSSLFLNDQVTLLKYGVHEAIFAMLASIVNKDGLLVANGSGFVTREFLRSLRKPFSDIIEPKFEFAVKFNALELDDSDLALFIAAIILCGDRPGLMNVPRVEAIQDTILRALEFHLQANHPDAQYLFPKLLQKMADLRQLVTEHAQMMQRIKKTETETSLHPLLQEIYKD

[5] = Supplementary Table 1, chromene derivatives, n ≥ 2, read-out: FXR EC50
[6] = Supplementary Table 1, chromene derivatives, mean ± SEM, n ≥ 2, read-out: PPAR EC50
[7] = PPAR EC50 [M], Supplementary Table 1, chromene derivatives, n ≥ 2
[8] = Supplementary Table 1, chromene derivatives, n ≥ 2, read-out: PPAR EC50
[9] = HeLa, n = 3, read-out: EC50 [μM] FXR
[10] = EC50 [μM] PPARα, HEK293T, n = 3
[11] = EC50 [μM] PPARδ, HEK293T, n = 3
[12] = HEK293T, mean ± SEM, n = 3, read-out: EC50 [μM] PPARγ
[13] = HEK293T, n = 3, read-out: EC50 [μM] PPARδ

T1 sequence (P19793 whole entry): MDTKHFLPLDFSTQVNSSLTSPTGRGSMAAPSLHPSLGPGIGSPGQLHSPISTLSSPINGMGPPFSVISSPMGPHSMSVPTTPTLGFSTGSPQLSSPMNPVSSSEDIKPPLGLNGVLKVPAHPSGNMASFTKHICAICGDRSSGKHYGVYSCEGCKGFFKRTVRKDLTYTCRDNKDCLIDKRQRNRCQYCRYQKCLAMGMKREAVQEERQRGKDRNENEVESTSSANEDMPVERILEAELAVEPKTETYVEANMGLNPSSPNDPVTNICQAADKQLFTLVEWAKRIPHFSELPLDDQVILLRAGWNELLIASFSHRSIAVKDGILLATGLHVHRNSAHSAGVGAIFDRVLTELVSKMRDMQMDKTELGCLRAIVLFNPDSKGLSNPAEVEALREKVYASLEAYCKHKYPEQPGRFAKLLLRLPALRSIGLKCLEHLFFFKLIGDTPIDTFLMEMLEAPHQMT
T1 sequence (Q96RI1 whole entry): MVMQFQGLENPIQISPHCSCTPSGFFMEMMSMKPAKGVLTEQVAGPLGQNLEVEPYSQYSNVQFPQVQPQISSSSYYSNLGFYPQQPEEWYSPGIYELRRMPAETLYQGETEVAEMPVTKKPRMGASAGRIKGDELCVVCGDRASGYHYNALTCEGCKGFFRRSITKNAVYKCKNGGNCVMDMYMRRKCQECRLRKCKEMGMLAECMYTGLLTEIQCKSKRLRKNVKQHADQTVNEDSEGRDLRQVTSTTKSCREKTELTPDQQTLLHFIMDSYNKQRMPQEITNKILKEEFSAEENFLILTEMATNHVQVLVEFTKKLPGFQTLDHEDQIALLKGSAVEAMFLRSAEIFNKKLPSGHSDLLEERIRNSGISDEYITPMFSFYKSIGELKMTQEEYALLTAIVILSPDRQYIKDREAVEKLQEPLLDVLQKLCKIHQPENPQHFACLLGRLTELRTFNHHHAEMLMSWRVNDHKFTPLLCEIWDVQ

Compound | EC50 [1, 5] [µM] | FXR max. rel. act. ([1]; n ≥ 2) [%] | EC50 [2, 6] [µM] | Emax ([2]; read-out: PPAR max. rel. act.) [%] | EC50 [3, 7] [M] | Emax ([3]; read-out: PPAR max. rel. act.) [%] | EC50 [4, 8] [µM] | Emax ([4]; read-out: PPAR max. rel. act.) [%] | Emax ([1]; HeLa) [%] | EC50 [1, 9] [µM] | EC50 [2] [µM] | Emax ([2]; read-out: max. rel. act. PPARγ) [%] | EC50 [3, 10] [M] | Emax ([3]; read-out: max. rel. act. PPARα) [%] | EC50 [4, 11] [µM] | Emax ([4]; read-out: max. rel. act. PPARδ) [%] | EC50 [2, 12] [µM] | EC50 [4, 13] [µM] | preference over PPARγ ([2]; triple FXR/PPARα/δ potency versus PPARγ)
O=C(O)CCc1cccc(NC(=O)c2ccccc2NC(=O)C2=Cc3ccccc3OC2)c1 [S1, 3-(3-[2-{2H-Chromene-3-carboxamido}benzamido]phenyl)propanoic acid] | 4.1 ± 0.8 | 14 ± 1 | 7.7 ± 0.6 | 6.6 ± 0.2 | 5.2e-06 ± 8e-07 | 26 ± 3 | 1.2 ± 0.1 | 26 ± 1 | – | – | – | – | – | – | – | – | – | – | –
O=C(O)CCc1cccc(NC(=O)c2ccccc2NC(=O)C2=C(Cl)c3ccccc3OC2)c1 [S2, 3-(3-[2-{4-Chloro-2H-chromene-3-carboxamido}benzamido]phenyl)propanoic acid] | 11 ± 1 | 16 ± 1 | 2.3 ± 0.1 | 9 ± 0.1 | 4.6e-07 ± 3e-08 | 31 ± 1 | 0.42 ± 0.01 | 31 ± 1 | – | – | – | – | – | – | – | – | – | – | –
Cc1cccc2c1C=C(C(=O)Nc1ccccc1C(=O)Nc1cccc(CCC(=O)O)c1)CO2 [S3, 3-(3-[2-{5-Methyl-2H-chromene-3-carboxamido}benzamido]phenyl)propanoic acid] | 4.3 ± 0.3 | 11 ± 1 | 8 ± 0.8 | 14 ± 1 | 8.3e-07 ± 1e-07 | 24 ± 1 | 0.67 ± 0.04 | 27 ± 1 | – | – | – | – | – | – | – | – | – | – | –
Cc1ccc2c(c1)C=C(C(=O)Nc1ccccc1C(=O)Nc1cccc(CCC(=O)O)c1)CO2 [S4, 3-(3-[2-{6-Methyl-2H-chromene-3-carboxamido}benzamido]phenyl)propanoic acid] | 5.4 ± 0.1 | 12 ± 1 | 5 ± 1.6 | 36 ± 8 | 8.4e-07 ± 1e-07 | 29 ± 1 | 1.5 ± 0.2 | 16 ± 1 | – | – | – | – | – | – | – | – | – | – | –
O=C(O)CCc1cccc(NC(=O)c2ccccc2NC(=O)C2=Cc3cc(F)ccc3OC2)c1 [S5, 3-(3-[2-{6-Fluoro-2H-chromene-3-carboxamido}benzamido]phenyl)propanoic acid] | > 10 | – | 4.6 ± 0.8 | 17 ± 1 | 1.8e-06 ± 6e-07 | 20 ± 1 | 2.6 ± 0.8 | 20 ± 3 | – | – | – | – | – | – | – | – | – | – | –
O=C(O)CCc1cccc(NC(=O)c2ccccc2NC(=O)C2=Cc3cc(Cl)ccc3OC2)c1 [S6] | > 10 | – | 3 ± 0.5 | 5.1 ± 0.3 | 3.1e-06 ± 4e-07 | 27 ± 2 | 1.6 ± 0.5 | 14 ± 2 | – | – | – | – | – | – | – | – | – | – | –
Cc1ccc2c(c1)OCC(C(=O)Nc1ccccc1C(=O)Nc1cccc(CCC(=O)O)c1)=C2 [S7] | > 10 | – | 5 ± 1.6 | 7.9 ± 1.4 | 3.4e-06 ± 1e-07 | 38 ± 1 | 1.1 ± 0.1 | 30 ± 1 | – | – | – | – | – | – | – | – | – | – | –
Cc1cccc2c1OCC(C(=O)Nc1ccccc1C(=O)Nc1cccc(CCC(=O)O)c1)=C2 [S8] | > 10 | – | 3.1 ± 0.2 | 9.3 ± 0.5 | 3.5e-06 ± 2e-07 | 29 ± 1 | 1.2 ± 0.4 | 18 ± 2 | – | – | – | – | – | – | – | – | – | – | –
O=C(O)CCc1cccc(NC(=O)c2ccccc2NC(=O)C2=Cc3cccc(Cl)c3OC2)c1 [S9] | > 10 | – | 2.4 ± 0.2 | 7.6 ± 0.2 | 2.3e-06 ± 1e-07 | 35 ± 1 | 0.91 ± 0.36 | 16 ± 2 | – | – | – | – | – | – | – | – | – | – | –
COc1cccc2c1OCC(C(=O)Nc1ccccc1C(=O)Nc1cccc(CCC(=O)O)c1)=C2 [S10] | 2.8 ± 0.3 | 14 ± 1 | 23 ± 2 | 8.6 ± 0.6 | 6.6e-06 ± 1.8e-06 | 26 ± 5 | 5.2 ± 0.2 | 30 ± 1 | – | – | – | – | – | – | – | – | – | – | –
O=C(O)CCc1cccc(NC(=O)c2ccccc2NC(=O)C2=Cc3cccc(O)c3OC2)c1 [S11] | > 10 | – | 7.9 ± 1.2 | 6.3 ± 0.5 | > 3e-05 | – | > 30 | – | – | – | – | – | – | – | – | – | – | – | –
O=C(O)Cc1ccccc1NC(=O)c1ccccc1NC(=O)c1ccc2ccccc2c1 [compound 7] | – | – | – | – | – | – | – | – | 31 | 9.2 ± 0.2 | 1.7 ± 0.1 | 17 ± 10 | 1.4e-06 ± 1e-07 | 33 | > 10 | – | – | – | –
O=C(O)CCc1cccc(NC(=O)c2ccccc2NC(=O)c2ccc3ccccc3c2)c1 [compound 9] | – | – | – | – | – | – | – | – | 20 | 2.6 ± 0.3 | 2.6 ± 0.3 | 19 | 1e-06 ± 2e-07 | 31 | 0.65 ± 0.03 | 28 | – | – | –
O=C(O)CCc1ccc(NC(=O)c2ccccc2NC(=O)c2ccc3ccccc3c2)cc1 [compound 12] | – | – | – | – | – | – | – | – | 21 ± 10 | 2.1 ± 0.1 | – | – | > 3e-05 | – | – | – | > 30 | > 30 | –
O=C(O)COc1cccc(NC(=O)c2ccccc2NC(=O)c2ccc3ccccc3c2)c1 [compound 13] | – | – | – | – | – | – | – | – | 19 | 5 ± 1 | 19 ± 1 | 11 | 1e-05 ± 1e-06 | 35 | 10 ± 1 | 43 | – | – | –
O=C(O)CNc1cccc(NC(=O)c2ccccc2NC(=O)c2ccc3ccccc3c2)c1 [compound 14] | – | – | – | – | – | – | – | – | 31 | 1.3 ± 0.1 | – | 7.7 | > 3e-05 | – | – | 83 | 5.7 ± 0.1 | 3.5 ± 0.2 | –
CC(C)(Nc1cccc(NC(=O)c2ccccc2NC(=O)c2ccc3ccccc3c2)c1)C(=O)O [compound 15] | – | – | – | – | – | – | – | – | 10 | 0.45 ± 0.01 | 5.1 ± 0.9 | 18 | 1.7e-06 ± 1e-07 | 71 | 3.6 ± 0.2 | 42 | – | – | –
Cc1cccc(C(=O)Nc2cccc(CCC(=O)O)c2)c1NC(=O)c1ccc2ccccc2c1 [compound 16] | – | – | – | – | – | – | – | – | – | > 10 | 7.1 ± 1.3 | 6 | 6.2e-06 ± 1e-07 | 31 | 2.7 ± 0.3 | 30 | – | – | –
Cc1ccc(C(=O)Nc2cccc(CCC(=O)O)c2)c(NC(=O)c2ccc3ccccc3c2)c1 [compound 17] | – | – | – | – | – | – | – | – | 21 | 1.5 ± 0.1 | 1.4 ± 0.3 | 21 | 1.7e-06 ± 2e-07 | 67 | 0.17 ± 0.02 | 34 | – | – | –
Cc1ccc(NC(=O)c2ccc3ccccc3c2)c(C(=O)Nc2cccc(CCC(=O)O)c2)c1 [compound 18] | – | – | – | – | – | – | – | – | – | > 10 | 3.3 ± 0.1 | 23 | 8e-07 ± 2e-08 | 25 | 0.21 ± 0.01 | 14 | – | – | –
Cc1cccc(NC(=O)c2ccc3ccccc3c2)c1C(=O)Nc1cccc(CCC(=O)O)c1 [compound 19] | – | – | – | – | – | – | – | – | – | > 10 | 11 ± 2 | 2.5 | 7.4e-06 ± 4e-07 | 15 | 6.3 ± 0.9 | 20 | – | – | –
O=C(O)CCc1cccc(NC(=O)c2ccc(Cl)cc2NC(=O)c2ccc3ccccc3c2)c1 [compound 20] | – | – | – | – | – | – | – | – | – | > 10 | 1.4 ± 0.1 | 6 | 3e-06 ± 1e-07 | 16 | 1.9 ± 0.2 | 16 | – | – | –
O=C(O)CCc1cccc(NC(=O)c2ccc(O)cc2NC(=O)c2ccc3ccccc3c2)c1 [compound 21] | – | – | – | – | – | – | – | – | 16 | 4.5 ± 0.1 | 2.3 ± 0.3 | 20 | 5.3e-06 ± 5e-07 | 54 | 2.4 ± 0.1 | 34 | – | – | –
CC(C)(C)c1ccc(C(=O)Nc2cccc(CCC(=O)O)c2)c(NC(=O)c2ccc3ccccc3c2)c1 [compound 24] | – | – | – | – | – | – | – | – | – | – | 1.5 ± 0.1 | 20 | 3.1e-07 ± 8e-08 | 63 | – | – | – | – | approximately fivefold preference over PPARγ
O=C(O)CCc1cccc(NC(=O)c2ccccc2NC(=O)c2ccc(-c3ccoc3)cc2)c1 [compound 32] | – | – | – | – | – | – | – | – | 20 | 0.23 ± 0.01 | 4.2 ± 0.9 | 38 | 1.6e-06 ± 3e-07 | 31 | – | – | – | – | –
